Assay results as given in patent publication US10653717B2, “Antibiotic compositions” (priority 2016, dated 2020).
Where two headings read alike, the source gives them in different places.

Columns and labels:
[1] = tested on: E. coli DHB4 trxA^−B^−C^−; experiment: microbe, parasite or virus in culture; type: cell-based, Escherichia coli; settings: 24 h; for MIC: Escherichia coli, read-out: MIC of ebselen in the presence of silver
Experimental: (§1) Since Trx and GSH/Grx are major thiol-dependent systems, investigated were the effects of Ag^+ with ebselen in combination on Trx or GSH system-deficient E. coli redox mutants.
(§2) Serial dilutions of ebselen and AgNO3 were added to the individual wells. The minimum inhibitory concentration (MIC) was determined after 24 h culture at 37° C.

E. coli DHB4 trxC^− = experiment: microbe, parasite or virus in culture; type: cell-based, Escherichia coli; settings: for MIC: read-out: MIC of ebselen in the presence of silver
Experimental: as §1, §2

[2] = tested on: E. coli DHB4 trxA^−gshA^−; experiment: microbe, parasite or virus in culture; type: cell-based, Escherichia coli; settings: for MIC: read-out: MIC of ebselen in the presence of silver
Experimental: as §1, §2

[3] = tested on: E. coli DHB4 gor^−grxA^−B^−C^−; experiment: microbe, parasite or virus in culture; type: cell-based, Escherichia coli; settings: 24 h; for MIC: Escherichia coli, read-out: MIC of ebselen in the presence of silver
Experimental: as §1, §2

E. coli DHB4 gshA^− = experiment: microbe, parasite or virus in culture; type: cell-based, Escherichia coli; settings: for MIC: read-out: MIC of ebselen in the presence of silver
Experimental: as §1, §2

E. coli DHB4 trxB^− = experiment: microbe, parasite or virus in culture; type: cell-based, Escherichia coli; settings: 24 h; for MIC: Escherichia coli, read-out: MIC of ebselen in the presence of silver
Experimental: as §1, §2

E. coli DHB4 gor^− = experiment: microbe, parasite or virus in culture; type: cell-based, Escherichia coli; settings: 24 h; for MIC: Escherichia coli, read-out: MIC of ebselen in the presence of silver
Experimental: as §1, §2

[4] = tested on: E. coli DHB4 grxA^−trxA^−; experiment: microbe, parasite or virus in culture; type: cell-based, Escherichia coli; settings: 24 h; for MIC: Escherichia coli, read-out: MIC of ebselen in the presence of silver
Experimental: as §1, §2

E. coli DHB4 trxA^− = experiment: microbe, parasite or virus in culture; type: cell-based, Escherichia coli; settings: 24 h; for MIC: Escherichia coli, read-out: MIC of ebselen in the presence of silver
Experimental: as §1, §2

E. coli TrxR = E. coli TrxR (Escherichia coli, UniProt P0A9P4); type: cell-based; set-up: endogenous in cells; host or cells: E. coli DHB4; settings: Ag^+ or ebselen alone
Experimental: E. coli DHB4 cells were grown till the absorbance at OD600 nm, of 0.4 in LB medium, and the bacterial cells were treated with different dilutions of ebselen and AgNO3 for 10 min. Cells were harvested by centrifugation at 6,000 rpm for 5 min and thoroughly washed 3 times with PBS, then cells were re-suspended in lysis buffer (25 mM Tris.HCl, pH 7.5, 100 mM NaCl, 2.5 mM EDTA, 2.5 mM EGTA, 20 mM NaF, 1 mM Na3VO4, 20 mM sodium ß-glycerophosphate, 10 mM sodium pyrophosphate, 0.5% Triton X-100) containing protease inhibitor cocktail and lysed by sonication. The cell lysates were obtained by centrifugation at 13,000 rpm for 20 min and the protein concentration was measured by Lowry protein assay (Bio-Rad DC™).
E. coli DHB4 TrxR activity in cell extracts was measured by a DTNB reduction activity assay.
E. coli DHB4 cells were grown till the absorbance at OD600 nm of 0.4 in LB medium, and the bacterial cells were treated with 80 μM antibiotics and 5 μM AgNO3 for 10 and 60 min, respectively. The cultures treated with 80 μM ebselen and 5 μM AgNO3 were used as the positive control. […] The cell lysates were obtained by centrifugation at 13,000 rpm for 20 min and the protein concentrations were measured by the Lowry protein assay.
E. coli DHB4 TrxR activity in cell extracts was measured by a DTNB reduction activity assay^23.

E. coli Trx = molecular target: T1, E. coli Trx (Escherichia coli, UniProt P0AA25); type: cell-based; settings: Ag^+ or ebselen alone
T1 construct: endogenous in cells; host or cells: E. coli DHB4

E. coli DHB4 = experiment: E. coli growth curves in 15 ml tubes, OD600 nm; type: cell-based, Escherichia coli
Experimental: The large scale growth inhibition of E. coli by Ag^+ with ebselen in combination was also observed in shaking testing 15 ml tubes. […] PI is a membrane-impermeable fluorescent dye that has been widely used to detect permeation of cell membrane and dead cells.
E. coli DHB4 cells were grown in 15 ml tubes until an OD600 nm of 0.4, and treated with 5 μM AgNO3 and serial concentration of ebselen (0, 20, 40, 80 μM) in combination. The survival of untreated E. coli was compared with the antibiotic-treated cells by measuring OD600 nm and counting the colonies. For colony formation assay, cells were harvested at 10 min, 1 h, 2 h, and 4 h by centrifugation at 6,000 rpm for 5 min and thoroughly washed 3 times with PBS. The cells were serially diluted in PBS, and 100 μl cultures were plated on LB plates. The colonies were counted after overnight incubation, and CFU/ml was calculated using the following formula: [(colonies)*(dilution factor)]/(amount plated).

[5] = 40 μM ebselen or 5 μM Ag^+ alone

E. coli TrxR, sequence (P0A9P4 whole entry): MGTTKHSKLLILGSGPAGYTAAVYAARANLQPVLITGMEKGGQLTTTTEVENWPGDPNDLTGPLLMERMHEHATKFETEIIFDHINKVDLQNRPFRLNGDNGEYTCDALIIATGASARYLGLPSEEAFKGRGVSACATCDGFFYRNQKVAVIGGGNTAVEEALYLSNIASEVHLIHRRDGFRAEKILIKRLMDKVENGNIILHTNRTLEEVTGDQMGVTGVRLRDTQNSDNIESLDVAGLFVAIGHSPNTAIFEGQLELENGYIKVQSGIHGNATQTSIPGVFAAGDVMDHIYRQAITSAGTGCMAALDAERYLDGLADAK
T1 sequence (P0AA25 2-109): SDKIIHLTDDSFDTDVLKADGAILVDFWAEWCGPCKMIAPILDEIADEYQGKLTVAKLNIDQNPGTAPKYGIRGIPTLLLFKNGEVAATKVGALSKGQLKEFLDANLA

`O=[N+]([O-])[O-].[Ag+]` [silver, silver nitrate] was tested, and the “MIC of silver in the presence of ebselen” value ([1]; Ebselen 0 μM) was 40 µM, the “MIC of silver in the presence of ebselen” value ([1]; Ebselen 1 μM) was 10 µM and the “MIC of silver in the presence of ebselen” value ([1]; Ebselen 2 μM) was 2.5 µM. The “MIC of silver in the presence of ebselen” value ([1]; Ebselen 4 μM) was 1.25 µM, the “MIC of silver in the presence of ebselen” value (E. coli DHB4 trxC^−; Ebselen 0 μM, trxC^−, 24 h) was 40 µM and the “MIC of silver in the presence of ebselen” value (E. coli DHB4 trxC^−; Ebselen 1 μM, trxC^−, 24 h) was 10 µM. The “MIC of silver in the presence of ebselen” value (E. coli DHB4 trxC^−; Ebselen 2 μM, trxC^−, 24 h) was 5 µM, the “MIC of silver in the presence of ebselen” value (E. coli DHB4 trxC^−; Ebselen 4 μM, trxC^−, 24 h) was 1.25 µM and the “MIC of silver in the presence of ebselen” value ([2]; Ebselen 0 μM, trxA^−gshA^−, 24 h) was 20 µM. For the same compound, the “MIC of silver in the presence of ebselen” value ([2]; Ebselen 1 μM, trxA^−gshA^−, 24 h) was 5 µM, the “MIC of silver in the presence of ebselen” value ([2]; Ebselen 2 μM, trxA^−gshA^−, 24 h) was 2.5 µM and the “MIC of silver in the presence of ebselen” value ([2]; Ebselen 4 μM, trxA^−gshA^−, 24 h) was 0.625 µM. For the same compound, the “MIC of silver in the presence of ebselen” value ([3]; Ebselen 0 μM) was 20 µM, the “MIC of silver in the presence of ebselen” value ([3]; Ebselen 1 μM) was 10 µM and the “MIC of silver in the presence of ebselen” value ([3]; Ebselen 2 μM) was 2.5 µM. For the same compound, the “MIC of silver in the presence of ebselen” value ([3]; Ebselen 4 μM) was 0.625 µM, the “MIC of silver in the presence of ebselen” value (E. coli DHB4 gshA^−; Ebselen 0 μM, gshA^−, 24 h) was 20 µM and the “MIC of silver in the presence of ebselen” value (E. coli DHB4 gshA^−; Ebselen 1 μM, gshA^−, 24 h) was 5 µM. The “MIC of silver in the presence of ebselen” value (E. coli DHB4 gshA^−; Ebselen 2 μM, gshA^−, 24 h) was 2.5 µM, the “MIC of silver in the presence of ebselen” value (E. coli DHB4 gshA^−; Ebselen 4 μM, gshA^−, 24 h) was 0.625 µM and the “MIC of silver in the presence of ebselen” value (E. coli DHB4 trxB^−; Ebselen 0 μM) was 40 µM. The “MIC of silver in the presence of ebselen” value (E. coli DHB4 trxB^−; Ebselen 1 μM) was 10 µM, the “MIC of silver in the presence of ebselen” value (E. coli DHB4 trxB^−; Ebselen 2 μM) was 2.5 µM and the “MIC of silver in the presence of ebselen” value (E. coli DHB4 trxB^−; Ebselen 4 μM) was 0.625 µM. For the same compound, the “MIC of silver in the presence of ebselen” value (E. coli DHB4 gor^−; Ebselen 0 μM) was 40 µM, the “MIC of silver in the presence of ebselen” value (E. coli DHB4 gor^−; Ebselen 1 μM) was 10 µM and the “MIC of silver in the presence of ebselen” value (E. coli DHB4 gor^−; Ebselen 2 μM) was 5 µM. The “MIC of silver in the presence of ebselen” value (E. coli DHB4 gor^−; Ebselen 4 μM) was 1.25 µM, the “MIC of silver in the presence of ebselen” value ([4]; Ebselen 0 μM) was 20 µM and the “MIC of silver in the presence of ebselen” value ([4]; Ebselen 1 μM) was 10 µM. The “MIC of silver in the presence of ebselen” value ([4]; Ebselen 2 μM) was 2.5 µM, the “MIC of silver in the presence of ebselen” value ([4]; Ebselen 4 μM) was 0.625 µM and the “MIC of silver in the presence of ebselen” value (E. coli DHB4 trxA^−; Ebselen 0 μM) was 40 µM. For the same compound, the “MIC of silver in the presence of ebselen” value (E. coli DHB4 trxA^−; Ebselen 1 μM) was 10 µM, the “MIC of silver in the presence of ebselen” value (E. coli DHB4 trxA^−; Ebselen 2 μM) was 2.5 µM and the “MIC of silver in the presence of ebselen” value (E. coli DHB4 trxA^−; Ebselen 4 μM) was 1.25 µM. For the same compound, the “TrxR activities in cell extracts” value (E. coli TrxR) was “not influenced”, the “Trx activities in cell extracts” value (E. coli Trx) was “not influenced” and the “E. coli growth (OD600 nm)” value (E. coli DHB4; [5]) was “did not inhibit bacterial growth”.
`O=c1c2ccccc2[se]n1-c1ccccc1` [ebselen, 2-phenyl-1,2-benzisoselenazol-3(2H)-one] showed an MIC ([1]; Silver 0 μM) of 80 µM, an MIC ([1]; Silver 5 μM) of 1 µM and an MIC ([1]; Silver 10 μM) of 0.5 µM. The MIC ([1]; Silver 20 μM) was 0.5 µM, the MIC (E. coli DHB4 trxC^−; Escherichia coli, 24 h, Silver 0 μM, trxC^−, 24 h) was 80 µM and the MIC (E. coli DHB4 trxC^−; Escherichia coli, 24 h, Silver 5 μM, trxC^−, 24 h) was 2 µM. For the same compound, the MIC (E. coli DHB4 trxC^−; Escherichia coli, 24 h, Silver 10 μM, trxC^−, 24 h) was 1 µM, the MIC (E. coli DHB4 trxC^−; Escherichia coli, 24 h, Silver 20 μM, trxC^−, 24 h) was 0.5 µM and the MIC (E. coli DHB4 trxC^−; Escherichia coli, 24 h) was 8 µM. It also gave an MIC (E. coli DHB4 trxC^−) of 4 µM, an MIC ([2]; Escherichia coli, 24 h, Silver 0 μM, trxA^−gshA^−, 24 h) of 40 µM and an MIC ([2]; Escherichia coli, 24 h, Silver 5 μM, trxA^−gshA^−, 24 h) of 1 µM. It also gave an MIC ([2]; Escherichia coli, 24 h, Silver 10 μM, trxA^−gshA^−, 24 h) of 0.5 µM, an MIC ([2]; Escherichia coli, 24 h) of 4 µM and an MIC [2] of 2 µM. It also gave an MIC ([3]; Silver 0 μM) of 40 µM, an MIC ([3]; Silver 5 μM) of 1 µM and an MIC ([3]; Silver 10 μM) of 0.5 µM. It also gave an MIC (E. coli DHB4 gshA^−; Escherichia coli, 24 h, Silver 0 μM, gshA^−, 24 h) of 40 µM, an MIC (E. coli DHB4 gshA^−; Escherichia coli, 24 h, Silver 5 μM, gshA^−, 24 h) of 1 µM and an MIC (E. coli DHB4 gshA^−; Escherichia coli, 24 h, Silver 10 μM, gshA^−, 24 h) of 0.5 µM. It also gave an MIC (E. coli DHB4 gshA^−; Escherichia coli, 24 h) of 4 µM, an MIC (E. coli DHB4 gshA^−) of 2 µM and an MIC (E. coli DHB4 trxB^−; Silver 0 μM) of 80 µM. It also gave an MIC (E. coli DHB4 trxB^−; Silver 5 μM) of 1 µM, an MIC (E. coli DHB4 trxB^−; Silver 10 μM) of 0.5 µM and an MIC (E. coli DHB4 trxB^−; Silver 20 μM) of 0.5 µM. For the same compound, the MIC (E. coli DHB4 gor^−; Silver 0 μM) was 80 µM, the MIC (E. coli DHB4 gor^−; Silver 5 μM) was 1 µM and the MIC (E. coli DHB4 gor^−; Silver 10 μM) was 1 µM. It also gave an MIC (E. coli DHB4 gor^−; Silver 20 μM) of 0.5 µM, an MIC ([4]; Silver 0 μM) of 40 µM and an MIC ([4]; Silver 5 μM) of 1 µM. The MIC ([4]; Silver 10 μM) was 0.5 µM, the MIC (E. coli DHB4 trxA^−; Silver 0 μM) was 80 µM and the MIC (E. coli DHB4 trxA^−; Silver 5 μM) was 1 µM. The MIC (E. coli DHB4 trxA^−; Silver 10 μM) was 1 µM, the MIC (E. coli DHB4 trxA^−; Silver 20 μM) was 0.5 µM and the “TrxR activities in cell extracts” value (E. coli TrxR) was “not influenced”. The “Trx activities in cell extracts” value (E. coli Trx) was “not influenced”, the “E. coli growth (OD600 nm)” value (E. coli DHB4; [5]) was “did not inhibit bacterial growth” and the “E. coli growth (OD600 nm)” value (E. coli DHB4; 80 μM ebselen alone, back to normal 12 h post-treatment) was “could inhibit E. coli growth in first 8 h”.
